Measurements as given in article PMC11025371, “Alcohols as inhibitors of ammonia oxidizing archaea and bacteria” (FEMS Microbiology Letters, 2023).
Converted amounts (≈) assume the structure as drawn. “Also recorded” adds a separate entry of the source. Where two headings read alike, the source gives them in different places. Marks after values point to notes of the source that are not given here.

Assays:
N. europaea [1] = test: Whole-cell activity assay, inhibition of ammonia oxidation (nitrite accumulation from 500 µM NH4Cl); type: cell-based, Nitrosomonas europaea; conditions: 28°C; for Lowest fully inhibitory concentration (I) for ammonia oxidation: full inhibition = lack of sustained nitrite accumulation; for IC50: nitrite accumulation over 1 h, read-out: Half-maximal inhibitory concentration (IC50) of ammonia oxidation
Description: (§1) Nitrosomonas europaea and ‘Ca. N. franklandus’ C13 cells were harvested at mid-exponential phase (∼800 µM NO2^− accumulated) by filtration onto 0.22 µm pore-size membrane filter (PES, Merck Millipore). Cells were then washed and resuspended in FWM salts (i.e. FWM without added NH4Cl and other medium components as described above) buffered with 10 mM HEPES buffer (pH 7). Cells were incubated at 28°C for N. europaea and 37°C for ‘Ca. N. franklandus’ C13 for ∼1 h until endogenous respiration ceased.
(§2) . Although these alcohols were added at concentrations above their solubility for the consistency of the experimental design, the limit of solubility was considered when evaluating the results. Reactions were initiated by addition of 500 µM NH4Cl or 200 µM NH2OH. Vials containing N. europaea and ‘Ca. Nitrosocosmicus franklandus’ C13 cells were incubated at 28°C and 37°C, respectively. The activity of cultures was followed by monitoring nitrite accumulation over 1 h, measured in 15 min intervals using Griess reagent in a 96-well plate format as previously described (Lehtovirta-Morley et al. [2014]). The final cell concentration in the activity assays was ∼10^7 cells ml^−1 for both N. europaea and ‘Ca. N. franklandus’ C13, which equate to ∼1.2 and 5.55 µg protein ml^−1, respectively. Cell counts were performed as previously described (Oudova-Rivera et al. [2023]). Protein concentrations were determined using a Pierce bicinchoninic acid (BCA) protein assay kit (Thermo Scientific) according to the manufacturer instructions. One-way ANOVA with LSD post-hoc tests were performed using SPSS statistics software version 27 (IBM).
The reaction velocity of ammonia and hydroxylamine oxidation was determined by measuring the rate of nitrite accumulation over time (µM min^−1). The logarithm of the reaction velocity, calculated as a percentage of the non-inhibited control, was plotted against the inhibitor concentration resulting in a linear relationship (Figs. S1 and S2). The half-maximal inhibitory concentration (IC50) was calculated from the slope and y-axis intercept over the linear part of the curve following the formula: […]
(§3) Inhibition by alcohols was tested at a fixed substrate concentration of 500 µM NH4Cl or 200 µM hydroxylamine for both N. europaea and ‘Ca. N. franklandus’ C13. Ammonia and hydroxylamine concentrations were selected based on previously published Km values and activity assays (Suzuki et al. [1974], Martens-Habbena et al. [2009], Oudova-Rivera et al. [2023]). Fully inhibitory concentrations of alcohols were determined experimentally with a series of activity assays, gradually narrowing down the range of alcohol concentrations applied. Full inhibition was defined as a lack of sustained nitrite accumulation, where there was either no nitrite accumulation at all, or where a minor accumulation of nitrite was initially detected but ceased (potentially due to a delayed effect of the inhibitor).

‘Ca. N. franklandus’ C13 [2] = test: as above; type: cell-based, ‘Candidatus Nitrosocosmicus franklandus’ C13; conditions: for Lowest fully inhibitory concentration (I) for ammonia oxidation / IC50: 37°C; for Lowest fully inhibitory concentration (I) for ammonia oxidation: full inhibition = lack of sustained nitrite accumulation; for IC50: nitrite accumulation over 1 h, read-out: Half-maximal inhibitory concentration (IC50) of ammonia oxidation
Description: as §1
as §2, with “Although” for “. Although”
The reaction velocity of ammonia and hydroxylamine oxidation was determined by measuring the rate of nitrite accumulation over time (µM min^−1). […] The half-maximal inhibitory concentration (IC50) was calculated from the slope and y-axis intercept over the linear part of the curve following the formula: […]
as §3
(§4) Inhibition of ammonia oxidation was tested using whole-cell activity assays with the concentration of alcohols ranging from 2 to 100 mM and fixed substrate ammonia concentration of 500 µM NH4Cl. […] Because hydroxylamine, the product of ammonia oxidation, is a pathway intermediate downstream of AMO, any inhibitors specific to AMO should not interfere with hydroxylamine oxidation.

N. europaea [3] = tested on: N. europaea; design: method as in Hooper and Terry [1973]; conditions: ref Hooper and Terry [1973]; cited from earlier work
‘Ca. N. franklandus’ C13 [4] = test: Whole-cell activity assay with hydroxylamine as substrate (specificity of AMO inhibition); type: cell-based, ‘Candidatus Nitrosocosmicus franklandus’ C13; conditions: 200 µM hydroxylamine; for Rate of nitrite accumulation from hydroxylamine oxidation compared to the non-inhibited control: alcohol at its lowest concentration fully inhibitory to ammonia oxidation; for Specificity of inhibition to AMO (effect on hydroxylamine oxidation): fully inhibitory alcohol concentration
Description: as §1
as §2, with “Although” for “. Although”
as §3, §4

N. europaea [5] = test: as above; type: cell-based, Nitrosomonas europaea; conditions: 200 µM hydroxylamine; for Rate of nitrite accumulation from hydroxylamine oxidation compared to the control: alcohol at its lowest concentration fully inhibitory to ammonia oxidation; for Specificity of inhibition to AMO (effect on hydroxylamine oxidation): fully inhibitory alcohol concentration
Description: as §1
as §2, with “Although” for “. Although”
as §3, §4

physchem = conditions: water

Structure (SMILES)	Lowest fully inhibitory concentration (I) for ammonia oxidation (N. europaea [1])	IC50 (N. europaea [1]) [mM]	Lowest fully inhibitory concentration (I) for ammonia oxidation (‘Ca. N. franklandus’ C13 [2])	IC50 (‘Ca. N. franklandus’ C13 [2]) [mM]	Concentration giving maximal inhibition (N. europaea [3]) [M]	Rate of nitrite accumulation from hydroxylamine oxidation compared to the non-inhibited control (‘Ca. N. franklandus’ C13 [4])	Rate of nitrite accumulation from hydroxylamine oxidation compared to the control (N. europaea [5])	Specificity of inhibition to AMO (effect on hydroxylamine oxidation) (‘Ca. N. franklandus’ C13 [4])	Specificity of inhibition to AMO (effect on hydroxylamine oxidation) (N. europaea [5])	IC50 (N. europaea [1]; Nitrosomonas europaea) [mM]	solubility (physchem) [mM]	Specificity of inhibition to AMO (effect on hydroxylamine oxidation) (‘Ca. N. franklandus’ C13 [4]; listed as methanol)	inhibition at 2000 µM (‘Ca. N. franklandus’ C13 [2]; 2 mM octanol (limit of solubility)) [%]	Lowest fully inhibitory concentration (I) for ammonia oxidation (‘Ca. N. franklandus’ C13 [2]; listed as octanol) [mM]
CCCO [1-Propanol, 1-propanol]	100 mM	13.6	20 mM	6.2	0.33	–	–	–	–	–	–	–	–	–
CC(C)O [2-Propanol, 2-propanol]	100 mM	32.6	40 mM	26.8	0.13	–	–	–	–	–	–	–	–	–
CCCCO [Butanol, 1-butanol]	100 mM	7.6	40 mM	4	–	55% ±2.3%	83% ± 1.8%	–	–	–	–	–	–	–
CCO [Ethanol, ethanol]	90 mM	20.9	80 mM	7.2	–	–	–	did not interfere with hydroxylamine oxidation; also recorded: specific inhibitor; also recorded: specific inhibitors of the AMO	specific inhibitor; also recorded: specific inhibitors of the AMO	–	–	–	–	–
CCCCCCCO [Heptanol, 1-heptanol]	17 mM	–	17 mM	3.6	–	10% ± 0.5%	no activity detected	–	–	4.5	17 (≈ 1980 µg/mL)	–	–	–
CCCCCCO [Hexanol, 1-hexanol]	20 mM	–	15 mM	2.4	–	13% ± 0.9%	18% ± 5.6%	–	–	2.2	–	–	–	–
CO [Methanol]	10 mM	0.31	8 mM	0.19	–	not affected	–	specific inhibitors of the AMO	specific inhibitors of the AMO	–	–	did not interfere with hydroxylamine oxidation	–	–
CCCCCCCCO [Octanol, 1-octanol]	20** mM	–	10** mM	–	–	33% ± 1.4%	no activity detected	–	–	–	2 (≈ 260 µg/mL)	–	39	10
CCCCCO [Pentanol, 1-pentanol]	100 mM	–	20 mM	3.6	–	53% ± 2.8%	27% ± 2.6%	–	–	5.3	–	–	–	–
